Measurements: patent publication US12503717B2, “Systems and methods for modeling disease and assessing adverse side effects of therapeutics therefor” (NOVOHEART INTERNATIONAL LIMITED, priority 2016, dated 2025)
Marks after values point to notes of the source that are not given here.

Key:
[1] = test system: hvCAS (human ventricular cardiac anisotropic sheet of HES2 hESC-derived ventricular cardiomyocytes); format: cell-based
Procedure: hvCAS preparations were loaded with di-8-ANEPPS (10 μM; D-3167; Molecular Probes)/[…] (0.04%; P-3000MP; Life Technologies) for 1 hour at 37° C. in DMEM-F12, followed by incubation at room temperature (RT) for 15 minutes in Blebbistatin (50 μM, B0560; Sigma-Aldrich) in Tyrode's solution. Tyrode's solution consists of 140 mM NaCl, 5 mM KCl, 1 mM MgCl2, 1 mM CaCl2, 10 mM D-glucose, and 10 mM HEPES at pH 7.4 to minimize potential interference of optical mapping signals by motion artifacts. The dye-loaded hvCAS preparations were bathed in Tyrode's solution which was maintained at 35-37° C. using a culture dish incubator (Warners Instruments). High-resolution optical mapping of AP and conduction properties was performed using a MiCam Ultima (SciMedia, CA, USA) with a 1× objective and a 1× condensing lens to yield a 10 mm by 10 mm field of view. Fluorescence imaging was performed using a halogen light filtered by a 515±35 nm band-pass excitation filter and a 590 nm high-pass emission filter. Data were collected at a sampling rate of 200 Hz and analyzed using BVAna software (SciMedia). A programmable stimulator (Master8; AMPI, Israel) was enrolled to deliver pacing stimuli (10V, 10-ms pulse duration) via a unipolar point-stimulation electrode (Harvard Apparatus, MA, USA) placed perpendicular to the hvCAS surface.
A point stimulation was applied at the center of an […] preparation following the schematic illustration (FIG. 2E) and steady state pacing (10 ms, 10 V) was first applied from 0.5 Hz through to 3 Hz (i.e., 30 to 180 bpm) with 0.5 Hz increments, unless there was a loss of 1:1 capture using Master-8 (AMPI, Israel). A standard (S1-S2) programmed electrical stimulation (PES) protocol was then introduced to further evaluate arrhythmogenicity, similar to what has been previously described^[15]. A train of eight S1 stimuli was delivered at 1.5 Hz followed by a premature extra stimulus (S2) with S1-S2 interval initiated at 550 ms and consecutively shortened in steps of 50 ms until capture failed.
A set of selection criteria was strictly followed before an hvCAS was employed for subsequent drug testing procedures to ensure fair comparison. In particular, the selection criteria included (1) observation of a consistent propagation signal across the whole field of view, (2) a maximum capture frequency of at least 1.5 Hz and (3) no re-entry at baseline. Drugs were then added at three cumulative doses to cover the therapeutic range and HERG IC50 was determined using a conventional technique known in the art.^[33] All drugs were purchased from Sigma-aldrich (MO, USA). […] Steady-state pacing and PES were repeated, as described above, for each dose unless re-entry occurred before the highest dose was applied. Action potential parameters and conduction properties were subsequently analyzed using Clampfit, with APD90 defined as the time from the peak to 90% repolarization. Data are individually presented as mean±SD and statistically compared using Student's t-test with p<0.05 considered statistically significant.

[2] = cited from earlier work

Row | SMILES | Chirality of Re-entry: Anticlock-wise ([1]; human, pH 7.4) | Chirality of Re-entry: Clock-wise ([1]; human, pH 7.4) | Chirality of Re-entry: Figure-of-eight ([1]; human, pH 7.4) | Chirality of Re-entry: Multi-origin ([1]; human, pH 7.4) | Frequency of re-entries (Mean ± SD) ([1]; human, pH 7.4) | No. of Re-entry, 1st dose ([1]; human, pH 7.4) | No. of Re-entry, 2nd dose ([1]; human, pH 7.4) | No. of Re-entry, 3rd dose ([1]; human, pH 7.4) | effect on AP at relatively low doses [1] | fold increase in risk compared to the vehicle control (DMSO) ([1]; human, 300 nM, pH 7.4) [fold] | reentrant events at relatively low doses ([1]; human, pH 7.4) | arrhythmic risk compared to the respective vehicle control (FIG. 3H) [1] | fold increase in incidence rate or arrhythmic risk normalized to corresponding vehicle control ([1]; human, pH 7.4) [fold] | serum concentration associated with clinical TdP ([2]; serum) [nM] | risk of arrhythmia or sudden death during hospitalization ([2]; nested case-control study) | clinical QT prolongation / TdP liability ([2]; human, in vivo)
1 | CC(=O)Oc1ccccc1C(=O)O [ASP, aspirin] |  |  |  |  |  |  |  |  |  |  |  | lower risk |  |  |  | 
2 | COc1cc(N)c(Cl)cc1C(=O)NC1CCN(CCCOc2ccc(F)cc2)CC1OC (stereo not shown) [CISA, cisapride] | 5 | 3 | 0 | 1 | 1.18 ± 0.40 | 2^[a] | 4^[a] | 3 |  |  |  | elevated risk | 2.7 |  | doubling or tripling | 
3 | COc1ccccc1OCC(O)CN1CCN(CC(=O)Nc2c(C)cccc2C)CC1 (stereo not shown) [ranolazine] |  |  |  |  |  |  |  |  |  |  |  |  |  |  |  | reasonably safe from causing TdP

Second part, led by results:

Row | Chirality of Re-entry: Anticlock-wise ([1]; human, pH 7.4) | Chirality of Re-entry: Clock-wise ([1]; human, pH 7.4) | Chirality of Re-entry: Figure-of-eight ([1]; human, pH 7.4) | Chirality of Re-entry: Multi-origin ([1]; human, pH 7.4) | Frequency of re-entries (Mean ± SD) ([1]; human, pH 7.4) | No. of Re-entry, 1st dose ([1]; human, pH 7.4) | No. of Re-entry, 2nd dose ([1]; human, pH 7.4) | No. of Re-entry, 3rd dose ([1]; human, pH 7.4) | effect on AP at relatively low doses [1] | fold increase in risk compared to the vehicle control (DMSO) ([1]; human, 300 nM, pH 7.4) [fold] | reentrant events at relatively low doses ([1]; human, pH 7.4) | SMILES | arrhythmic risk compared to the respective vehicle control (FIG. 3H) [1] | fold increase in incidence rate or arrhythmic risk normalized to corresponding vehicle control ([1]; human, pH 7.4) [fold] | serum concentration associated with clinical TdP ([2]; serum) [nM] | risk of arrhythmia or sudden death during hospitalization ([2]; nested case-control study) | clinical QT prolongation / TdP liability ([2]; human, in vivo)
4 | 0 | 1 | 1 | 0 | 1.34 ± 0.52 | 0 | 1^[a] | 1 |  |  |  | Cc1cccc(C)c1NC(=O)C(C)N (stereo not shown) [TOC, tocainide] | lower risk | 0.7 |  |  | 
5 | 3 | 0 | 0 | 0 | 1.53 ± 0.42 | 1^[a] | 2 | 0 |  |  |  | CCN(CC)CCNC(=O)c1ccc(N)cc1 [PROC, procainamide] | elevated risk | 2.3 |  |  | 
6 | 3 | 1 | 0 | 0 | 1.04 ± 0.31 | 0 | 0 | 4 | no apparent effects on AP | 1.2 | 0 of 16 | CC(C)(C)c1ccc(C(O)CCCN2CCC(C(O)(c3ccccc3)c3ccccc3)CC2)cc1 (stereo not shown) [TERF, terfenadine] | elevated risk |  | 120 |  | 
7 | 3 | 1 | 1 | 0 | 1.92 ± 0.37 | 4^[a] | 1^[a] | 0 |  |  |  | O=C(NCC1CCCCN1)c1cc(OCC(F)(F)F)ccc1OCC(F)(F)F (stereo not shown) [FLE, flecainide] | elevated risk |  |  |  | 
